PubChem BioAssay AID192 (DTP/NCI, 2004)
Toxic doses and inconclusive results are not listed. The calls were made as follows: active = survival T/C of 150% or more; inactive = T/C below 125% in these data.

System: BDF1 mice, B16 melanoma ip, median survival T/C
Assay: NCI In Vivo Anticancer Drug Screen. Data for tumor model B16 Melanoma (intraperitoneal) in B6D2F1 (BDF1) mice
Conditions: endpoint: median survival time, higher = longer survival
Outline: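 In this screen, activity was judged from survival or tumor size in treated versus vehicle-treated tumor-bearing mice, reported as T/C.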

[1] = dose: 100.0 mg/kg/injection, schedule: Q01DX009 (ip), vehicle: Klucel (hydroxypropylcellulose) (HPC)
[2] = dose: 200.0 mg/kg/injection, schedule: Q01DX009 (ip), vehicle: Klucel (hydroxypropylcellulose) (HPC)
[3] = dose: 100.0 mg/kg/injection, schedule: Q04DX003 (ip), vehicle: Klucel (hydroxypropylcellulose) (HPC)
[4] = dose: 200.0 mg/kg/injection, schedule: Q04DX003 (ip), vehicle: Klucel (hydroxypropylcellulose) (HPC)
[5] = dose: 50.0 mg/kg/injection, schedule: Q01DX009 (ip), vehicle: saline with Tween-80
[6] = dose: 100.0 mg/kg/injection, schedule: Q01DX009 (ip), vehicle: saline with Tween-80
[7] = dose: 25.0 mg/kg/injection, schedule: Q01DX009 (ip), vehicle: saline with Tween-80

Measured: T/C

Nc1nc(=S)c2ncn(C3OC(COC(=O)c4ccc(Cl)cc4)C(OC(=O)c4ccc(Cl)cc4)C3OC(=O)c3ccc(Cl)cc3)c2[nH]1 (centres undefined)
inactive: dose: 18.75 mg/kg/injection, schedule: Q01DX009 (ip), vehicle: Klucel (hydroxypropylcellulose) (HPC) 116 % of control | dose: 37.5 mg/kg/injection, schedule: Q01DX009 (ip), vehicle: Klucel (hydroxypropylcellulose) (HPC) 120 % of control | dose: 75.0 mg/kg/injection, schedule: Q01DX009 (ip), vehicle: Klucel (hydroxypropylcellulose) (HPC) 116 % of control | dose: 150.0 mg/kg/injection, schedule: Q01DX009 (ip), vehicle: Klucel (hydroxypropylcellulose) (HPC) 109 % of control

C=CCOCC(O)CN(C)CCCC (centres undefined)
inactive: dose: 50.0 mg/kg/injection, schedule: Q04DX003 (ip), vehicle: saline 108 % of control | dose: 100.0 mg/kg/injection, schedule: Q04DX003 (ip), vehicle: saline 108 % of control

CC(C)=CCC1(O)C(=O)c2ccccc2C1(O)C(=O)O (centres undefined)
inactive: dose: 25.0 mg/kg/injection, schedule: Q01DX009 (ip), vehicle: Klucel (hydroxypropylcellulose) (HPC) 92 % of control | dose: 50.0 mg/kg/injection, schedule: Q01DX009 (ip), vehicle: Klucel (hydroxypropylcellulose) (HPC) 101 % of control | [1] 90 % of control | [2] 93 % of control

C=C(C)C12OC3(c4ccccc4)OC1C1C4OC4(CO)C(O)C4(O)C(=O)C(C)=CC4C1(O3)C(C)C2OC(=O)/C=C/C=C/c1ccccc1 (centres undefined)
inactive: dose: 6.3 micrograms/kg/injection, schedule: Q01DX009 (ip), vehicle: saline with Tween-80 107 % of control | dose: 12.5 micrograms/kg/injection, schedule: Q01DX009 (ip), vehicle: saline with Tween-80 96 % of control | dose: 25.0 micrograms/kg/injection, schedule: Q01DX009 (ip), vehicle: alcohol 90 % of control | dose: 25.0 micrograms/kg/injection, schedule: Q01DX009 (ip), vehicle: saline with Tween-80 96 % of control | dose: 50.0 micrograms/kg/injection, schedule: Q01DX009 (ip), vehicle: alcohol 91 % of control | dose: 50.0 micrograms/kg/injection, schedule: Q01DX009 (ip), vehicle: saline with Tween-80 96 % of control | dose: 100.0 micrograms/kg/injection, schedule: Q01DX009 (ip), vehicle: alcohol 88 % of control | dose: 100.0 micrograms/kg/injection, schedule: Q01DX009 (ip), vehicle: saline with Tween-80 96 % of control

O=C(C[n+]1ccc2ccccc2c1)c1ccccc1
inactive: dose: 12.5 mg/kg/injection, schedule: Q01DX009 (ip), vehicle: saline 86 % of control | dose: 25.0 mg/kg/injection, schedule: Q01DX009 (ip), vehicle: saline 86 % of control | dose: 50.0 mg/kg/injection, schedule: Q01DX009 (ip), vehicle: saline 100 % of control

CC(C)c1cccc(C(C)C)c1OC(=O)Nc1ccccc1Cl
inactive: [3] 100 % of control | [4] 96 % of control

C[N+]1=CN(c2ccc(Cl)cc2)Cc2cc(Cl)ccc21
inactive: [1] 88 % of control | [3] 88 % of control | [2] 86 % of control | [4] 102 % of control | dose: 400.0 mg/kg/injection, schedule: Q01DX009 (ip), vehicle: Klucel (hydroxypropylcellulose) (HPC) 102 % of control | dose: 400.0 mg/kg/injection, schedule: Q04DX003 (ip), vehicle: Klucel (hydroxypropylcellulose) (HPC) 100 % of control

O=C(Oc1ccc(-c2ccc(Br)cc2)cc1)c1ccco1
inactive: [5] 88 % of control

O=C(OCc1ccccc1)C(=O)OCc1ccccc1
inactive: [6] 121 % of control | dose: 100.0 mg/kg/injection, schedule: Q04DX003 (ip), vehicle: saline with Tween-80 100 % of control | dose: 200.0 mg/kg/injection, schedule: Q04DX003 (ip), vehicle: saline with Tween-80 107 % of control

OCc1ccc[n+](CCc2c[nH]c3ccccc23)c1
inactive: [7] 102 % of control | [5] 99 % of control | [6] 102 % of control

CN(C)CCOc1ccc2c(c1)C/C(=C/c1ncc([N+](=O)[O-])n1C)C2=O
inactive: dose: 6.25 mg/kg/injection, schedule: Q01DX009 (ip), vehicle: saline with Tween-80 109 % of control | dose: 12.5 mg/kg/injection, schedule: Q01DX009 (ip), vehicle: saline with Tween-80 100 % of control | [7] 96 % of control | [5] 99 % of control | [6] 109 % of control

O=c1nc(NC(=S)Nc2ccn(C3OC(CO)C(O)C3O)c(=O)n2)ccn1C1OC(CO)C(O)C1O (centres undefined)
inactive: dose: 4.0 mg/kg/injection, schedule: Q01DX009 (ip), vehicle: saline sonified 97 % of control | dose: 8.0 mg/kg/injection, schedule: Q01DX009 (ip), vehicle: saline sonified 102 % of control | dose: 8.0 mg/kg/injection, schedule: Q01DX009 (ip), vehicle: saline with Tween-80 95 % of control | dose: 16.0 mg/kg/injection, schedule: Q01DX009 (ip), vehicle: saline sonified 100 % of control | dose: 16.0 mg/kg/injection, schedule: Q01DX009 (ip), vehicle: saline with Tween-80 108 % of control | dose: 32.0 mg/kg/injection, schedule: Q01DX009 (ip), vehicle: saline sonified 102 % of control | dose: 32.0 mg/kg/injection, schedule: Q01DX009 (ip), vehicle: saline with Tween-80 95 % of control | dose: 64.0 mg/kg/injection, schedule: Q01DX009 (ip), vehicle: saline with Tween-80 104 % of control
